Data taken from patent US7329652B2, “Diaminotriazole compounds useful as protein kinase inhibitors” (Vertex Pharamaceuticals Incorporated, priority 2004, dated 2008).

Assays:
JAK-2 enzyme = JAK-2 enzyme (Homo sapiens, UniProt O60674); experiment: JAK2 inhibition assay (radiometric 33P filter assay); assay type: biochemical; conditions: 15 μM poly(Glu)4Tyr, 12 μM ATP; read-out: JAK2 inhibition data (Ki)
Method: (§1) Compounds were screened for their ability to inhibit JAK using the assay shown below. Reactions were carried out in a kinase buffer containing 100 mM HEPES (pH 7.4), 1 mM DTT, 10 mM MgCl2, 25 mM NaCl, and 0.01% BSA.
(§2) Substrate concentrations in the assay were 5 μM ATP (200 uCi/μmole ATP) and 1 μM poly(Glu)4Tyr. Reactions were carried out at 25° C. and 1 nM JAK3.
(§3) To each well of a 96 well polycarbonate plate was added 1.5 μl of a candidate JAK3 inhibitor along with 50 μl of kinase buffer containing 2 μM poly(Glu)4Tyr and 10 μM ATP. This was then mixed and 50 μl of kinase buffer containing 2 nM JAK3 enzyme was added to start the reaction. After 20 minutes at room temperature (25° C.), the reaction was stopped with 50 μl of 20% trichloroacetic acid (TCA) that also contained 0.4 mM ATP. The entire contents of each well were then transferred to a 96 well glass fiber filter plate using a TomTek Cell Harvester. After washing, 60 μl of scintillation fluid was added and ^33P incorporation detected on a Perkin Elmer TopCount.
The assays were as described above in Example 25 except that JAK-2 enzyme was used, the final poly(Glu)4Tyr concentration was 15 μM, and final ATP concentration was 12 μM.

JAK3 = biological target: T1, JAK3 (Homo sapiens, UniProt P52333); experiment: JAK3 inhibition assay (radiometric 33P filter assay); assay type: biochemical; conditions: 1 μM poly(Glu)4Tyr, 5 μM ATP, 1 nM JAK3, 25° C.; read-out: JAK3 inhibition data (Ki)
T1 sequence (P52333 1-1124): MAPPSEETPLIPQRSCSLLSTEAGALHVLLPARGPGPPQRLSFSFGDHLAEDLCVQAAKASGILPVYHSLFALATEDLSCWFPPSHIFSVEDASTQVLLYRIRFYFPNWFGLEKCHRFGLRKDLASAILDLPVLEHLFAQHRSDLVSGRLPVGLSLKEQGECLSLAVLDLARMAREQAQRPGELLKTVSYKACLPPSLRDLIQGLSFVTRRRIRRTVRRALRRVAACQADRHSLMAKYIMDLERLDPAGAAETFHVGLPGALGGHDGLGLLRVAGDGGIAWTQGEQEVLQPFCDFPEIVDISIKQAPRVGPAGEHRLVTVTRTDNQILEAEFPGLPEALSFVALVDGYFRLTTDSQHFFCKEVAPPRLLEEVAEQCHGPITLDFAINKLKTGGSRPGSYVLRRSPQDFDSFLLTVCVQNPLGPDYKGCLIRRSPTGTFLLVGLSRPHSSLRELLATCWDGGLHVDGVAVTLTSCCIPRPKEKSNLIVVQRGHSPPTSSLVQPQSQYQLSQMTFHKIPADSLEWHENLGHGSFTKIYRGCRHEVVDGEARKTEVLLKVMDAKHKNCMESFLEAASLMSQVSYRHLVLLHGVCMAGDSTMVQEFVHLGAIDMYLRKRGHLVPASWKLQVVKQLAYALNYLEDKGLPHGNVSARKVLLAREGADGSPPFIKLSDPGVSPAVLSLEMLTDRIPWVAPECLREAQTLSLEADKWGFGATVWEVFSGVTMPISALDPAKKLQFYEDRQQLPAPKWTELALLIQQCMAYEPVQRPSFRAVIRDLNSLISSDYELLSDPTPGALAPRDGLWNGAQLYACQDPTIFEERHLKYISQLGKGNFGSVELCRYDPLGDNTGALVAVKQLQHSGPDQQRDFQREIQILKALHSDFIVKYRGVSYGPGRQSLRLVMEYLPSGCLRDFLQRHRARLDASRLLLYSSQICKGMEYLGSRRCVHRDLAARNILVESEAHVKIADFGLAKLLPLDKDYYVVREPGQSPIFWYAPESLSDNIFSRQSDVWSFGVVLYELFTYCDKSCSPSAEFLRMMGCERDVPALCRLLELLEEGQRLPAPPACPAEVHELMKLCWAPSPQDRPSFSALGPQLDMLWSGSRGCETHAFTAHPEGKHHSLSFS
Method: as §1, §2, §3

Sequence of JAK-2 enzyme (O60674 whole entry, species assumed): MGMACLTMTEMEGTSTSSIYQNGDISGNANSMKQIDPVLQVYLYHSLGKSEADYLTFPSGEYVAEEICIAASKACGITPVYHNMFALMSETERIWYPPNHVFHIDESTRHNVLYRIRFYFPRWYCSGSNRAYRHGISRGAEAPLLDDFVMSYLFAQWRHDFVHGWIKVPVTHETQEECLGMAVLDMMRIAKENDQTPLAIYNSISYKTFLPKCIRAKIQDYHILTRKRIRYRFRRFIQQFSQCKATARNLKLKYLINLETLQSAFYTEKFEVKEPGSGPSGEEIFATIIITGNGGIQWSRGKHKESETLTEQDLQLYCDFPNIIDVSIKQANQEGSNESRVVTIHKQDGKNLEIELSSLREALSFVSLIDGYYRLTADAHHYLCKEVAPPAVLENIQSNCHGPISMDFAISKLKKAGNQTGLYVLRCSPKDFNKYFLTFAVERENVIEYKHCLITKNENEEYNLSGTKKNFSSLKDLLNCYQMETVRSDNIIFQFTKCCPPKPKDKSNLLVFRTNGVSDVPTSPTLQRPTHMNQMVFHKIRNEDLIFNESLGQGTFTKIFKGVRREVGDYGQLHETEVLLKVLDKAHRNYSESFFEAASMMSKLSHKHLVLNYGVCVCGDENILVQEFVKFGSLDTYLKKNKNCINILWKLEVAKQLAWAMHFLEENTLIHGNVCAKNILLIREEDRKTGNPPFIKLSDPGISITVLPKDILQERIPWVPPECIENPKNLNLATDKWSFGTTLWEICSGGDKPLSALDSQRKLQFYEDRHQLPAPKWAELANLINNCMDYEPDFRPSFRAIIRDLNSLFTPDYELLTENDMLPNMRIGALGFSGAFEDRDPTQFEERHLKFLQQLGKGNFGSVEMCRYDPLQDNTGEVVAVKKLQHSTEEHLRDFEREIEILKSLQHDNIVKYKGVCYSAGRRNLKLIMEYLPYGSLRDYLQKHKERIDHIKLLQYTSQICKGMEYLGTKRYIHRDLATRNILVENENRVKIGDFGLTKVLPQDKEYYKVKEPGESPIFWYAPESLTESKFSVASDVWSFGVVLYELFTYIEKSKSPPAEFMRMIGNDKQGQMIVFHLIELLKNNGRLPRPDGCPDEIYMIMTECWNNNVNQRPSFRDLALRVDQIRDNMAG

SMILES | Ki (JAK-2 enzyme) [nM] | Ki (JAK3) [nM]
Nc1nc(Nc2ccc(N3CCOCC3)cc2)nn1-c1cc(N2CCCCCC2)ncn1 [Compound 15] | < 50 | < 50
CCOC(=O)Nc1ccc(Nc2nc(N)n(-c3cc(N4C[C@@H](C)N(C(C)=O)[C@@H](C)C4)ncn3)n2)cc1 [Compound 76] | < 50 | < 50
COC(=O)N1CCN(c2ccc(Nc3nc(N)n(-c4cc(N5CCCN(C(C)=O)CC5)ncn4)n3)cc2)CC1 [Compound 45] | < 50 | < 50
CC(=O)N1[C@H](C)CN(c2cc(-n3nc(Nc4ccc(NC(=O)OC(C)C)cc4)nc3N)ncn2)C[C@@H]1C [Compound 78] | < 50 | < 50
CC(=O)Nc1ccc(Nc2nc(N)n(-c3ccnc(N4C[C@@H](C)N(C(C)=O)[C@@H](C)C4)c3)n2)cc1 [Compound 35, N-(4-{1-[2-(4-Acetyl-3,5-dimethyl-piperazin-1-yl)-pyridin-4-yl]-5-amino-1H-[1,2,4]triazol-3-ylamino}-phenyl)-acetamide] | < 50 | < 50
CC(=O)N1CCCN(c2cc(-n3nc(Nc4ccc(NC(=O)OC(C)(C)C)cc4)nc3N)ncn2)CC1 [Compound 21] | < 50 | < 50
CC(=O)N1[C@H](C)CN(c2cc(-n3nc(Nc4ccc(NC(=O)NC5CCCCC5)cc4)nc3N)ncn2)C[C@@H]1C [Compound 71] | < 50 | < 50
CC(=O)N1[C@H](C)CN(c2cc(-n3nc(Nc4ccc(N5CCN(C(=O)OC(C)C)CC5)cc4)nc3N)ccn2)C[C@@H]1C [Compound 143] | < 50 | < 50
CC(=O)N1[C@H](C)CN(c2cc(-n3nc(Nc4ccc(NC(=O)O[C@H]5C[C@H](C)CC[C@H]5C(C)C)cc4)nc3N)ncn2)C[C@@H]1C [Compound 82] | < 50 | 50 to 500
COC1CCCC(C(=O)Nc2ccc(Nc3nc(N)n(-c4cc(N5CCCN(C(C)=O)CC5)ncn4)n3)cc2)C1 (stereo not shown) [Compound 32] | < 50 | < 50
CC(=O)N1CCCN(c2cc(-n3nc(Nc4ccc(NC(=O)OCC(C)(C)C)cc4)nc3N)ncn2)CC1 [Compound 95] | < 50 | < 50
N#CCC(=O)N1CCCN(c2cc(-n3nc(Nc4ccc(N5CCNCC5)cc4)nc3N)ncn2)CC1 [Compound 123] | < 50 | < 50
CC(=O)N1CCCN(c2cc(-n3nc(Nc4ccc(N(C)C(=O)OCC(C)(C)C)cc4)nc3N)ncn2)CC1 [Compound 132] | < 50 | < 50
CC(=O)N1CCCN(c2cc(-n3nc(Nc4ccc(N5CCN(C(=O)OC(C)C)CC5)cc4)nc3N)ncn2)CC1 [Compound 48] | < 50 | < 50
CCOC(=O)Nc1ccc(Nc2nc(N)n(-c3ccnc(N4CCCN(C(C)=O)CC4)c3)n2)cc1 [Compound 171] | 50 to 500 | < 50
Nc1nc(Nc2ccc(N3CCOCC3)cc2)nn1-c1cc(N2CCN3C(=O)CC[C@@H]3C2)ncn1 [Compound 23] | < 50 | < 50
CC(=O)N1[C@H](C)CN(c2cc(-n3nc(Nc4ccc(N5CCNCC5)cc4)nc3N)ncn2)C[C@@H]1C [Compound 59] | < 50 | < 50
CC(=O)N1[C@H](C)CN(c2cc(-n3nc(Nc4ccc(NC(=O)OC(C)C)cc4)nc3N)ccn2)C[C@@H]1C [Compound 103] | < 50 | < 50
CC(=O)N1[C@H](C)CN(c2cc(-n3nc(Nc4ccc(NC(=O)NC(C)C)cc4)nc3N)ncn2)C[C@@H]1C [Compound 69] | < 50 | < 50
COC(=O)Nc1ccc(Nc2nc(N)n(-c3ccnc(N4CCCN(C(C)=O)CC4)c3)n2)cc1 [Compound 170] | 50 to 500 | 50 to 500
CC(=O)N1[C@H](C)CN(c2cc(-n3nc(Nc4ccc(N(C)C(=O)OC(C)(C)C)cc4)nc3N)ncn2)C[C@@H]1C [Compound 114] | < 50 | < 50

SMILES | Ki (JAK-2 enzyme) [nM] | Ki (JAK3) [nM]
CCCOC(=O)N1CCN(c2ccc(Nc3nc(N)n(-c4ccnc(N5CCCN(S(C)(=O)=O)CC5)c4)n3)cc2)CC1 [Compound 162] | 50 to 500 | 50 to 500
Cc1ccc(OC(=O)Nc2ccc(Nc3nc(N)n(-c4cc(N5CCCN(C(=O)CC#N)CC5)ncn4)n3)cc2)cc1 [Compound 138] | < 50 | < 50
CCOC(=O)CCNC(=O)Nc1ccc(Nc2nc(N)n(-c3cc(N4CCCN(C(C)=O)CC4)ncn3)n2)cc1 [Compound 89] | < 50 | < 50
COC(=O)N1CCCN(c2cc(-n3nc(Nc4ccc(N5CCN(C(=O)OC(C)C)CC5)cc4)nc3N)ccn2)CC1 [Compound 156] | 50 to 500 | 50 to 500
CC(=O)N1CCCN(c2cc(-n3nc(Nc4ccc(N(C)C(=O)OC(C)C)cc4)nc3N)ncn2)CC1 [Compound 130] | < 50 | < 50
CC(=O)N1[C@H](C)CN(c2cc(-n3nc(Nc4ccc(NC(=O)CC(C)C)cc4)nc3N)ccn2)C[C@@H]1C [Compound 111] | < 50 | < 50
CCOC(=O)Nc1ccc(Nc2nc(N)n(-c3ccnc(N4C[C@@H](C)N(C(C)=O)[C@@H](C)C4)c3)n2)cc1 [Compound 101] | < 50 | < 50
CCNC(=O)Nc1ccc(Nc2nc(N)n(-c3cc(N4C[C@@H](C)N(C(C)=O)[C@@H](C)C4)ncn3)n2)cc1 [Compound 67] | < 50 | < 50
CCCOC(=O)N1CCN(c2ccc(Nc3nc(N)n(-c4ccnc(N5CCCN(C(=O)OCCC)CC5)c4)n3)cc2)CC1 [Compound 160] | 50 to 500 | 50 to 500
CCOC(=O)N(C)c1ccc(Nc2nc(N)n(-c3cc(N4CCCN(C(C)=O)CC4)ncn3)n2)cc1 [Compound 127] | < 50 | < 50
CC(=O)N1CCCN(c2cc(-n3nc(Nc4ccc(N5CCN(C(=O)OC6CCOC6)CC5)cc4)nc3N)ncn2)CC1 (stereo not shown) [Compound 43] | < 50 | < 50
CCOC(=O)N1CCN(c2ccc(Nc3nc(N)n(-c4ccnc(N5CCCN(C(=O)OC(C)C)CC5)c4)n3)cc2)CC1 [Compound 151] | 50 to 500 | 50 to 500
CC(=O)N1[C@H](C)CN(c2cc(-n3nc(Nc4ccc(N5CCN(C(=O)NC6CCCCC6)CC5)cc4)nc3N)ncn2)C[C@@H]1C [Compound 64] | < 50 | < 50
CC(=O)N1[C@H](C)CN(c2cc(-n3nc(Nc4ccc(N5CCN(C(=O)OCC(C)(C)C)CC5)cc4)nc3N)ncn2)C[C@@H]1C [Compound 57] | < 50 | < 50
CCCOC(=O)N1CCN(c2ccc(Nc3nc(N)n(-c4cc(N5CCCN(C(C)=O)CC5)ncn4)n3)cc2)CC1 [Compound 47] | < 50 | < 50
CC(=O)N1CCCN(c2cc(-n3nc(Nc4ccc(N5CCNCC5)cc4)nc3N)ncn2)CC1 [Compound 42] | < 50 | < 50
CC(=O)N1[C@H](C)CN(c2cc(-n3nc(Nc4ccc(NC(=O)NC(C)C)cc4)nc3N)ccn2)C[C@@H]1C [Compound 107] | < 50 | < 50
CCOC(=O)Nc1ccc(Nc2nc(N)n(-c3cc(N4CCCN(C(C)=O)CC4)ncn3)n2)cc1 [Compound 91] | < 50 | < 50
CC(=O)N1[C@H](C)CN(c2cc(-n3nc(Nc4ccc(NC(=O)NC(C)(C)C)cc4)nc3N)ncn2)C[C@@H]1C [Compound 70] | < 50 | < 50
CC(=O)N1CCCN(c2cc(-n3nc(Nc4ccc(NC(=O)O[C@@H]5C[C@@H](C)CC[C@@H]5C(C)C)cc4)nc3N)ncn2)CC1 [Compound 98] | 50 to 500 | 50 to 500
